Results as given in patent US12533403B2, “Peptide conjugated particles” (NORTHWESTERN UNIVERSITY, priority 2013, dated 2026).
No end group written: not given here.

Assays:
[1] = test system: spontaneous Type 1 diabetes; experiment: Spontaneous type 1 diabetes in NOD mice; assay type: in vivo; conditions: iv at 6, 8, and 10 weeks of age; diabetes = blood glucose >250 mg/dL
Experimental: NOD mice were treated with either BSA (N=22) or insulin (N=23) coupled PLG particles via intravenous administration at 6, 8, and 10 weeks of age. The mice were then assayed for the development of diabetes which was defined as blood glucose >250 mg/dL.

[2] = test system: Relapsing Experimental Autoimmune Encephalitis (R-EAE); experiment: Treatment of R-EAE at day 10 by different routes of administration; assay type: in vivo, mice; conditions: mouse, in vivo
Experimental: Experiments were conducted during development of embodiments of the present invention to investigate the ability of the PLG-PLP139-151 particles to treat disease rather than prevent disease, and to determine whether the route of administration affected the development of disease. Mice were immunized at day 0 with PLP139-151 and an adjuvant. Mice normally have maximal clinical scores at day 12-14. In this model, the mice were treated at day 10 with the PLG-PLP139-151 particles or with control PLG-OVA323-339 particles either via intravenous (iv) administration, intraperitoneal (ip) administration, subcutaneous (sc) administration, or orally. […] This is in contrast to animals treated with PLP139-151 polystyrene particles, whereby >70% of animals where observed to die from anaphylaxis.

[3] = test system: OVA/Alum pre-sensitized mice; experiment: Anaphylaxis-induced temperature drop in OVA/Alum pre-sensitized animals; assay type: in vivo; conditions: iv on day 28; within 1 hour of delivery
Experimental: Due to the presence of active disease, anaphylaxis to the antigens is a concern, which could result in immediate mortality, and has been described with polystyrene bound particles. Anaphylaxis is associated with a significant drop in body temperature. To test whether intravenous administration of OVA-PLG induces an anaphylaxis-induced temperature drop in pre-sensitized animals, mice were immunized at day 0 with 10 μg OVA/Alum via intraperitoneal injection. On day 14, the mice were again immunized with 10 μg OVA/Alum via intraperitoneal injection, and then tolerized with OVA-PLG administered intravenously on day 21. On day 28, the mice were then tolerized with either OVA-PLG particles or OVA via intravenous administration.

Row | Molecule | percentage of mice that did not develop diabetes over 300 days [1] | also measured
1 | BSA coupled PLG particles: BSA coupled PLG particles (control) [reference compound] | 22.7% | –
2 | PLP139-151 polystyrene particles: PLP139-151 bound to polystyrene particles (CHCLGKWLGHPDK; cysteine pairing not given here; also: bound to polystyrene particles; UniProt P60202 139-151, looked up, fragment) [reference compound] | – | animals observed to die from anaphylaxis [2]: > 70%
3 | insulin coupled PLG particles: insulin coupled PLG particles | 69.6% | –
4 | soluble OVA: soluble ovalbumin given intravenously (protein, UniProt P01012 2-386, looked up) Ovalbumin: GSIGAASMEFCFDVFKELKVHHANENIFYCPIAIMSALAMVYLGAKDSTRTQINKVVRFDKLPGFGDSIEAQCGTSVNVHSSLRDILNQITKPNDVYSFSLASRLYAEERYPILPEYLQCVKELYRGGLEPINFQTAADQARELINSWVESQTNGIIRNVLQPSSVDSQTAMVLVNAIVFKGLWEKAFKDEDTQAMPFRVTEQESKPVQMMYQIGLFRVASMASEKMKILELPFASGTMSMLVLLPDEVSGLEQLESIINFEKLTEWTSSNVMEERKIKVYLPRMKMEEKYNLTSVLMAMGITDVFSSSANLSGISSAESLKISQAVHAAHAEINEAGREVVGSAEAGVDAASVSEEFRADHPFLFCIKHIATNAVLFFGRCVSP | – | body temperature [3]: decrease in temperature
